Consider 9 compounds from PubChem BioAssay (NCI).

Each structure is given as a SMILES string. Where “and” joins values, the source holds several entries; their conditions need not be identical. Equal entries are not always repeated.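 Compound exposure: 48 hours, 5 concentrations, 96-well plates. TGI denotes the concentration required for complete inhibition of growth.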 A value given as a limit tells only on which side of the number the result lay.

Some test systems named below: DLD-1 colon; DMS 114 small cell lung; DMS 273 small cell lung; KM20L2 colon; HOP-18 NSCLC; SNB-78 CNS; RXF-631 renal; XF 498 CNS.
What all share (assay): NCI anticancer screen, dose series, 48 h

Consider `COC(=O)n1c(CBr)c(Br)c2ccccc21`, for which the TGI in the assay on DLD-1 colon, with DMS 114 small cell lung, in the assay on DMS 273 small cell lung and in the assay on KM20L2 colon was greater than 100 µM each time.

As to `COc1ccc(C2=CN3CCC[C@H]3C=C2c2cc(O)c(OC)c(OC)c2)cc1OC`, the TGI is 0.0627 µM and 0.0119 µM in the assay on DLD-1 colon; 0.0189 µM in the assay with DMS 114 small cell lung; 0.0216 µM in the assay on DMS 273 small cell lung; 0.0504 µM in the assay on HOP-18 NSCLC; 0.0391 µM in the assay on SNB-78 CNS.

With `CCOC12SC(=Nc3ccc(C)cc3)NN1C(=S)N(C)N=C2C` (stereo not given), the TGI in the assay with DLD-1 colon, in the assay with DMS 114 small cell lung, in the assay on DMS 273 small cell lung, in the assay with HOP-18 NSCLC and in the assay on KM20L2 colon was greater than 100 µM each time.

With `Cc1cc(N=C2C=C(Nc3cc(C)on3)C(=O)c3ccccc32)no1`, the TGI is greater than 100 µM in the assay on DLD-1 colon; 73.7 µM in the assay on DMS 114 small cell lung; greater than 100 µM in the assay on DMS 273 small cell lung; 92.2 µM in the assay with HOP-18 NSCLC; greater than 100 µM with KM20L2 colon; greater than 100 µM with RXF-631 renal. In addition, the TGI is 68.1 µM in the assay on SNB-78 CNS and greater than 100 µM in the assay with XF 498 CNS.

As to `Clc1ncnc2c1ncn2CCCCCCCCCCCCn1cnc2c(Cl)ncnc21`, the TGI with DLD-1 colon was found to be 20.4 µM; in the assay on DMS 114 small cell lung, 3.55 µM; with DMS 273 small cell lung, 14.1 µM; in the assay on HOP-18 NSCLC, 58.3 µM; in the assay on KM20L2 colon, 30 µM; in the assay on SNB-78 CNS, 11.2 µM. This compound yielded a TGI in the assay on XF 498 CNS of 21.6 µM.

For `CC(=O)NC1=C(NCc2ccc(Cl)cc2)C(=O)c2ccccc2C1=O`, the TGI in the assay with DLD-1 colon is 13.2 µM; in the assay with DMS 273 small cell lung, 14.6 µM; with KM20L2 colon, greater than 50 µM; with SNB-78 CNS it was 24.1 µM; in the assay with XF 498 CNS it was 4.74 µM.

Regarding `CC(=O)Nc1ccc(-c2nnc(SCC(=O)Nc3ccccc3C)o2)cc1`, the TGI with DLD-1 colon, in the assay with DMS 114 small cell lung, in the assay with DMS 273 small cell lung, in the assay on HOP-18 NSCLC, in the assay with KM20L2 colon and with SNB-78 CNS was greater than 100 µM throughout.

As for `COc1nc2[nH]ccc2c(=O)n1C`, the TGI in the assay with DLD-1 colon, in the assay on DMS 114 small cell lung, with DMS 273 small cell lung, in the assay with HOP-18 NSCLC, in the assay on RXF-631 renal and in the assay on SNB-78 CNS was greater than 100 µM in each case. Besides, the TGI with XF 498 CNS is greater than 100 µM.

`CN1CCCCC(C(O)(c2ccccc2)c2ccccc2)C1=O` (stereo not given): the TGI with DLD-1 colon, in the assay on DMS 114 small cell lung, in the assay with DMS 273 small cell lung, with HOP-18 NSCLC, in the assay on KM20L2 colon and with RXF-631 renal was greater than 100 µM throughout. Besides, the TGI with SNB-78 CNS and in the assay with XF 498 CNS was greater than 100 µM in each case.
